Laboratory results as given in paper PMC4983742 (ACS Medicinal Chemistry Letters, 2016).

Biological target: T1, androgen receptor (AR) (Homo sapiens, UniProt P10275, T878A)
T1 sequence (P10275 1-920 T878A): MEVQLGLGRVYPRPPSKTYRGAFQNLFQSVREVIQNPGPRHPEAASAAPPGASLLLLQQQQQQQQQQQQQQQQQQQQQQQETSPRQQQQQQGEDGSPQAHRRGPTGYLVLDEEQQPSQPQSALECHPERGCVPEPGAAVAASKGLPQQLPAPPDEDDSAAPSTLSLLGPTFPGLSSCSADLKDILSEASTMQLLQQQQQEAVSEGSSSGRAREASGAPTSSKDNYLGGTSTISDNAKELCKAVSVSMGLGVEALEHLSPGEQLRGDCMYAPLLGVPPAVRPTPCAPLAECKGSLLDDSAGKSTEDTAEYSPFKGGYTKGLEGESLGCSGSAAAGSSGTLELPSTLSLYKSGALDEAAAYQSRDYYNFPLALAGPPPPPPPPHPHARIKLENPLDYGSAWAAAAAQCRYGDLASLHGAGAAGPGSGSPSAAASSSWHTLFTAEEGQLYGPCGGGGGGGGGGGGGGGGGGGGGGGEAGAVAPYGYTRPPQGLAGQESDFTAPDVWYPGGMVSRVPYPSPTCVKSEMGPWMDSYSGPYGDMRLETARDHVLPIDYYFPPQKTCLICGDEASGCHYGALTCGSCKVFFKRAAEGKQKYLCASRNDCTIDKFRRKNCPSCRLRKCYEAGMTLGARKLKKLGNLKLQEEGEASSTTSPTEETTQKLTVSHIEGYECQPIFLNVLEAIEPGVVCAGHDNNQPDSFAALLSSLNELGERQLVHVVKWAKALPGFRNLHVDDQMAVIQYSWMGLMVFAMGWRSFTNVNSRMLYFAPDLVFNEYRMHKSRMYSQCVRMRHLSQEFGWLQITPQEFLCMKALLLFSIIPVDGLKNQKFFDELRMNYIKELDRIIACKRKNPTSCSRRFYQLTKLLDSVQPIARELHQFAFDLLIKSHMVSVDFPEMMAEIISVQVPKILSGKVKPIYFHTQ
Format: cell-based
Conditions: for activity in the PSA luciferase assay, in words: C4-2-PSA-rl cells, 1 nM R1881

Cc1ccccc1N1CCN(C(=O)[C@H]2C[C@@H]2c2ccccc2)CC1 (relative stereo) [compound 16]
activity in the PSA luciferase assay, in words: essentially inactive

Cc1ccc(Cl)cc1N1CCN(C(=O)[C@H]2C[C@H]2c2ccc(F)cc2)CC1 [(1S,2R)-27]
activity in the PSA luciferase assay, in words: substantially equipotent to the commercial AR antagonist, enzalutamide

Cc1ccccc1N1CCC(OC(=O)NCSCc2c(C)noc2C)CC1 [20b]
activity in the PSA luciferase assay, in words: inactive

Cc1ccc(Cl)cc1N1CCN(C(=O)[C@@H]2C[C@@H]2c2ccc(F)cc2)CC1 [(1R,2S)-27]
fold less potent than enantiomer (1S,2R)-27: ca. 10 fold

Cc1ccccc1N1CCN(C(=O)C#Cc2ccccc2)CC1 [compound 10]
activity in the PSA luciferase assay, in words: essentially inactive

Cc1ccccc1N1CCN(C(=O)NCSCc2c(C)noc2C)CC1 [20a]
activity in the PSA luciferase assay, in words: inactive

Cc1ccccc1N1CCN(C(=O)CSc2ccccc2)CC1 [compound 9]
activity in the PSA luciferase assay, in words: abolished activity

Cc1ccccc1N1CCN(C(=O)C[S+]([O-])Cc2c(C)noc2C)CC1 (stereo not shown) [compound 12]
activity in the PSA luciferase assay, in words: inactive

COc1ccccc1N1CCN(C(=O)CSCc2c(C)noc2C)CC1 [5h]
activity in the PSA luciferase assay, in words: complete loss of activity

Cc1ccc(N2CCN(C(=O)CSCc3c(C)noc3C)CC2)cc1 [5d]
activity in the PSA luciferase assay, in words: loss of activity

Cc1ccccc1N1CCN(C(=O)COCc2c(C)noc2C)CC1 [18a]
activity in the PSA luciferase assay, in words: abolished activity

Cc1ccccc1N1CCN(CCSCc2c(C)noc2C)CC1 [compound 6]
fold increase in activity relative to amide 5b: 1.3 fold

Cc1ccccc1N1CCN(C(=O)CN(C)Cc2ccccc2)CC1 [18b]
activity in the PSA luciferase assay, in words: abolished activity

Cc1ccccc1N1CCN(C(=O)/C=C/c2ccccc2)CC1 [compound 11]
activity in the PSA luciferase assay, in words: essentially inactive

Cc1noc(C)c1CSCC(=O)N1CCN(c2ccccc2)CC1 [5a]
activity in the PSA luciferase assay, in words: deleted activity

Cc1cccc(N2CCN(C(=O)CSCc3c(C)noc3C)CC2)c1 [5c]
activity in the PSA luciferase assay, in words: loss of activity
